pIC50: −log10 of the molar value.

Assay [1] deals with T1, glucosylceramide synthase (GCS) (Homo sapiens, UniProt Q16739).
T1 construct: gene UGCG; GCS overexpressed in HeLa GCS KO cells, lysate
T1 sequence (Q16739 1-394): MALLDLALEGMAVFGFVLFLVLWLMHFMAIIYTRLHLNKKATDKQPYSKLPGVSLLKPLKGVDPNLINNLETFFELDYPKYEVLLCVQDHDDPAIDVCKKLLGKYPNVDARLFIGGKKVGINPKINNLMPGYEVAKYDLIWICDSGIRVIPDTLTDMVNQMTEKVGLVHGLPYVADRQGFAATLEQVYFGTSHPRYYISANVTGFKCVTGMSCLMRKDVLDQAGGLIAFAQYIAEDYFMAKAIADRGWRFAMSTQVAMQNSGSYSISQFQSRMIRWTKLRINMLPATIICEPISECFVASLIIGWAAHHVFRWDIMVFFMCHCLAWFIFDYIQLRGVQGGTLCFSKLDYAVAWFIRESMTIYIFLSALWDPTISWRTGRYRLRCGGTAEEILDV
In words: XylCer formation in lysates of HeLa, GCS KO and GCS-reexpressing cells, LC-MS/MS. It counts as cell-based. The text has this: formation in lysates of HeLa, GCS KO and GCS-reexpressing cells, LC-MS/MS on glucosylceramide synthase (GCS) | Expression of GCS in the GCS KO cells reinstalled their ability to produce […]

For a further assay, the target named is T2, glucocerebrosidase (GBA) (Mus musculus, UniProt P17439).
T2 construct: gene Gba1; endogenous GBA in RAW264.7 cells
T2 sequence (P17439 20-515): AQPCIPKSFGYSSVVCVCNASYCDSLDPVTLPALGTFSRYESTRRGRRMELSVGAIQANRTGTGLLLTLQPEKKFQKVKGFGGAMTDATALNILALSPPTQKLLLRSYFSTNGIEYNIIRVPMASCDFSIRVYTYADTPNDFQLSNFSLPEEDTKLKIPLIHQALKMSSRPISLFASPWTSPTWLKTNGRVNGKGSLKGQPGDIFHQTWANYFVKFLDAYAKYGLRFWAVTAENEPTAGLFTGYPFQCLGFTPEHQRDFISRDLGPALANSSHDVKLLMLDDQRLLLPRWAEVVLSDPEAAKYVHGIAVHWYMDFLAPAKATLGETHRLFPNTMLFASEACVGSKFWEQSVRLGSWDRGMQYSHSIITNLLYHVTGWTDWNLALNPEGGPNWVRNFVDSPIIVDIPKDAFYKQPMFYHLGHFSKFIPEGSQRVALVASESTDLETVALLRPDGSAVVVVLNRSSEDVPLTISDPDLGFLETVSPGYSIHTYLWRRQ
Briefly: irreversible GBA inhibition in RAW264.[…] cells ([…]); xylosylated cholesterol by LC-MS/MS. It counts as cell-based.

Assay [2] has as its target T3, glucocerebrosidase (GBA), recombinant human (rhGBA, Cerezyme) (Homo sapiens, UniProt P04062).
T3 construct: gene GBA1
T3 sequence (P04062 40-536): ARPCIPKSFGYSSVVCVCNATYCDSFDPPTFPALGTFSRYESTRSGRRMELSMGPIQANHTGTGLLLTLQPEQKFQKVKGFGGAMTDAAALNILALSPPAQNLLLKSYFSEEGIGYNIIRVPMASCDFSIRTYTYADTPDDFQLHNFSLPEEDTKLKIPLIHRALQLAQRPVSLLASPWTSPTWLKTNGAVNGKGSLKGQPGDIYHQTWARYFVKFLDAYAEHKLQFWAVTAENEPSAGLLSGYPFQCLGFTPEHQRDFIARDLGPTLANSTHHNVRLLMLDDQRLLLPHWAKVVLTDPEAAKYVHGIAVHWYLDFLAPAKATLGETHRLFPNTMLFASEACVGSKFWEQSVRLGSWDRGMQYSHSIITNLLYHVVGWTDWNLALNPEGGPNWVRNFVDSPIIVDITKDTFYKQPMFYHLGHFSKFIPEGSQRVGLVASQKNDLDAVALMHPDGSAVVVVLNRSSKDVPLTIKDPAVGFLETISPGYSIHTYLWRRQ
In words: fluorogenic 4-MU-β-Xyl ([…]) and 4-MU-β-Glc ([…]) hydrolysis after […] min preincubation. It counts as biochemical.

Another assay deals with T4, GBA3 (Homo sapiens, UniProt Q9H227).
T4 construct: GBA3 overexpressed in HEK293 cells, lysate
T4 sequence (Q9H227 1-469): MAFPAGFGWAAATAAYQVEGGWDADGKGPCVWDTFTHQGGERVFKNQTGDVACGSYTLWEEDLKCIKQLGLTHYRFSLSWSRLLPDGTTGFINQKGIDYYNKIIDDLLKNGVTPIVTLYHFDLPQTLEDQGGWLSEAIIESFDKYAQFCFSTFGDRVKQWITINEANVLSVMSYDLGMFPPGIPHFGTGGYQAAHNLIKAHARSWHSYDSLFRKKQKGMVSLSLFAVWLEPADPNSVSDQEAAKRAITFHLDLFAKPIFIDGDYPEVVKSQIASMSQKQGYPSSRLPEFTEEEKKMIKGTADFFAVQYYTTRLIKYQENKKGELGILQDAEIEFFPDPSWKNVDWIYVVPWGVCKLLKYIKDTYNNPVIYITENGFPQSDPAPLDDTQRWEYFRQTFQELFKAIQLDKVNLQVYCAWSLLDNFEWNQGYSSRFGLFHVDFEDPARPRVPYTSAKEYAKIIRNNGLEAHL
Briefly: hydrolysis and transxylosylation in lysates of GBA3-overexpressing HEK293 cells. Format: cell-based.

Assay [3] has as its target T3, glucocerebrosidase (GBA), recombinant human (rhGBA, Cerezyme). In words: transxylosylation/transglucosylation acceptor, LC-MS/MS of products. Format: biochemical.

For `O=c1ccn([C@@H]2O[C@H](COP(=O)(O)OP(=O)(O)O[C@H]3OC[C@@H](O)[C@H](O)[C@H]3O)[C@@H](O)[C@H]2O)c(=O)[nH]1` [UDP-Xyl], the “XylCer formation in lysates of HeLa, GCS KO and GCS-reexpressing cells, LC-MS/MS” value in assay [1] is on record as “Expression of GCS in the GCS KO cells reinstalled their ability to produce XylCer”.
Take `O[C@H]1[C@H](O)[C@@H](O)[C@@H]2O[C@@H]2[C@@H]1O` [conduritol B-epoxide, L-1,2-anhydro-myo-inositol]: on glucocerebrosidase (GBA), the “irreversible GBA inhibition in RAW264.7 cells (300 μM); xylosylated cholesterol” value was “formation was prohibited by prior inhibition of GBA with CBE”.
On to `OC[C@@H]1[C@@H](O)[C@H](O)[C@@H](O)[C@@H]2O[C@H]12` [cyclophellitol], for which, in assay [2], the pIC50 (commonly −log10 of the IC50, conventionally taken in molar units) was 7.21.
Regarding `Cc1cc(=O)oc2cc(O[C@@H]3OC[C@@H](O)[C@H](O)[C@H]3O)ccc12` [4-methylumbelliferyl β-D-xyloside], the “hydrolysis and transxylosylation in lysates of GBA3-overexpressing HEK293 cells” value on GBA3 was “GBA3, albeit less prominent than GBA, was found to be able to hydrolyze 4-MU-β-Xyl”.
Take `CC(C)CCC[C@@H](C)[C@H]1CC[C@H]2[C@@H]3CC=C4C[C@@H](O)CC[C@]4(C)[C@H]3CC[C@]12C` [cholesterol]: the “transxylosylation/transglucosylation acceptor, LC-MS/MS of products” value in assay [3] is “we used natural cholesterol as the acceptor and 4-MU-β-Xyl as the donor”.

The record behind these values is article PMC7903134, “Human glucocerebrosidase mediates formation of xylosyl-cholesterol by β-xylosidase and transxylosidase reactions” (Journal of Lipid Research, 2021).
